Source: ChEMBL document CHEMBL5724914, “Linking interpersonal differences in gut microbiota composition and drug biotransformation activity” (2024)

Details: human gut metagenome, 24 h, 2 µM
Further: call rule not given here.

| Compound | Bacterial Biotransformation |
| --- | --- |
| CC(NC(C)(C)C)C(=O)c1cccc(Cl)c1 (stereo not given) [BUPROPION] | Compound NOT metabolized |
| O=C1CC2(CCCC2)CC(=O)N1CCCCN1CCN(c2ncccn2)CC1 [BUSPIRONE] | Compound NOT metabolized |
| CCCC(C)(COC(N)=O)COC(=O)NC(C)C (stereo not given) [CARISOPRODOL] | Compound NOT metabolized |
| COc1ccccc1OCCNCC(O)COc1cccc2[nH]c3ccccc3c12 (stereo not given) [CARVEDILOL] | Compound metabolized |

Details: human gut metagenome, 24 h, 2 µM
Remark: another data set of the same source

| Compound | Bacterial Biotransformation |
| --- | --- |
| CC(NC(C)(C)C)C(=O)c1cccc(Cl)c1 (stereo not given) [BUPROPION] | Compound NOT metabolized |
| O=C1CC2(CCCC2)CC(=O)N1CCCCN1CCN(c2ncccn2)CC1 [BUSPIRONE] | Compound metabolized |
| CCCC(C)(COC(N)=O)COC(=O)NC(C)C (stereo not given) [CARISOPRODOL] | Compound metabolized |
| COc1ccccc1OCCNCC(O)COc1cccc2[nH]c3ccccc3c12 (stereo not given) [CARVEDILOL] | Compound metabolized |

Assay: (§1) The drug is tested on Z-020 corresponding to rabbit gut metagenome with ENA study accession number: PRJEB37062 and ENA sample accession number: ERS12561819 for biotransformation under anaerobic condition. The drug concentrations were measured over 9 timepoints collected between 0 and 24 hours of incubation by liquid-chromatography-coupled mass spectrometry (LC–MS)
Details: 2 µM

| Compound | Bacterial Biotransformation |
| --- | --- |
| CC(NC(C)(C)C)C(=O)c1cccc(Cl)c1 (stereo not given) [BUPROPION] | Compound NOT metabolized |
| O=C1CC2(CCCC2)CC(=O)N1CCCCN1CCN(c2ncccn2)CC1 [BUSPIRONE] | Compound NOT metabolized |
| CCCC(C)(COC(N)=O)COC(=O)NC(C)C (stereo not given) [CARISOPRODOL] | Compound metabolized |
| COc1ccccc1OCCNCC(O)COc1cccc2[nH]c3ccccc3c12 (stereo not given) [CARVEDILOL] | Compound NOT metabolized |

Details: human gut metagenome, 24 h, 2 µM
Remark: another data set of the same source

| Compound | Bacterial Biotransformation |
| --- | --- |
| CC(NC(C)(C)C)C(=O)c1cccc(Cl)c1 (stereo not given) [BUPROPION] | Compound NOT metabolized |
| O=C1CC2(CCCC2)CC(=O)N1CCCCN1CCN(c2ncccn2)CC1 [BUSPIRONE] | Compound metabolized |
| CCCC(C)(COC(N)=O)COC(=O)NC(C)C (stereo not given) [CARISOPRODOL] | Compound metabolized |
| COc1ccccc1OCCNCC(O)COc1cccc2[nH]c3ccccc3c12 (stereo not given) [CARVEDILOL] | Compound NOT metabolized |

Details: human gut metagenome, 24 h, 2 µM
Remark: another data set of the same source

| Compound | Bacterial Biotransformation |
| --- | --- |
| CC(NC(C)(C)C)C(=O)c1cccc(Cl)c1 (stereo not given) [BUPROPION] | Compound NOT metabolized |
| O=C1CC2(CCCC2)CC(=O)N1CCCCN1CCN(c2ncccn2)CC1 [BUSPIRONE] | Compound metabolized |
| CCCC(C)(COC(N)=O)COC(=O)NC(C)C (stereo not given) [CARISOPRODOL] | Compound metabolized |
| COc1ccccc1OCCNCC(O)COc1cccc2[nH]c3ccccc3c12 (stereo not given) [CARVEDILOL] | Compound metabolized |

Details: human gut metagenome, 24 h, 2 µM
Remark: another data set of the same source

| Compound | Bacterial Biotransformation |
| --- | --- |
| CC(NC(C)(C)C)C(=O)c1cccc(Cl)c1 (stereo not given) [BUPROPION] | Compound NOT metabolized |
| O=C1CC2(CCCC2)CC(=O)N1CCCCN1CCN(c2ncccn2)CC1 [BUSPIRONE] | Compound metabolized |
| CCCC(C)(COC(N)=O)COC(=O)NC(C)C (stereo not given) [CARISOPRODOL] | Compound NOT metabolized |
| COc1ccccc1OCCNCC(O)COc1cccc2[nH]c3ccccc3c12 (stereo not given) [CARVEDILOL] | Compound metabolized |

Assay: as §1, with “WLS-007” for “Z-020”, “human” for “rabbit”, “ERS12561742” for “ERS12561819”
Details: 2 µM

| Compound | Bacterial Biotransformation |
| --- | --- |
| CC(NC(C)(C)C)C(=O)c1cccc(Cl)c1 (stereo not given) [BUPROPION] | Compound NOT metabolized |
| O=C1CC2(CCCC2)CC(=O)N1CCCCN1CCN(c2ncccn2)CC1 [BUSPIRONE] | Compound NOT metabolized |
| CCCC(C)(COC(N)=O)COC(=O)NC(C)C (stereo not given) [CARISOPRODOL] | Compound metabolized |
| COc1ccccc1OCCNCC(O)COc1cccc2[nH]c3ccccc3c12 (stereo not given) [CARVEDILOL] | Compound NOT metabolized |

Details: human gut metagenome, 24 h, 2 µM
Remark: another data set of the same source

| Compound | Bacterial Biotransformation |
| --- | --- |
| CC(NC(C)(C)C)C(=O)c1cccc(Cl)c1 (stereo not given) [BUPROPION] | Compound NOT metabolized |
| O=C1CC2(CCCC2)CC(=O)N1CCCCN1CCN(c2ncccn2)CC1 [BUSPIRONE] | Compound metabolized |
| CCCC(C)(COC(N)=O)COC(=O)NC(C)C (stereo not given) [CARISOPRODOL] | Compound metabolized |
| COc1ccccc1OCCNCC(O)COc1cccc2[nH]c3ccccc3c12 (stereo not given) [CARVEDILOL] | Compound metabolized |

Details: human gut metagenome, 24 h, 2 µM
Remark: another data set of the same source

| Compound | Bacterial Biotransformation |
| --- | --- |
| CC(NC(C)(C)C)C(=O)c1cccc(Cl)c1 (stereo not given) [BUPROPION] | Compound NOT metabolized |
| O=C1CC2(CCCC2)CC(=O)N1CCCCN1CCN(c2ncccn2)CC1 [BUSPIRONE] | Compound metabolized |
| CCCC(C)(COC(N)=O)COC(=O)NC(C)C (stereo not given) [CARISOPRODOL] | Compound metabolized |
| COc1ccccc1OCCNCC(O)COc1cccc2[nH]c3ccccc3c12 (stereo not given) [CARVEDILOL] | Compound NOT metabolized |

Assay: as §1, with “Z-003” for “Z-020”, “pig” for “rabbit”, “ERS12561803” for “ERS12561819”
Details: 2 µM

| Compound | Bacterial Biotransformation |
| --- | --- |
| CC(NC(C)(C)C)C(=O)c1cccc(Cl)c1 (stereo not given) [BUPROPION] | Compound NOT metabolized |
| O=C1CC2(CCCC2)CC(=O)N1CCCCN1CCN(c2ncccn2)CC1 [BUSPIRONE] | Compound metabolized |
| CCCC(C)(COC(N)=O)COC(=O)NC(C)C (stereo not given) [CARISOPRODOL] | Compound metabolized |
| COc1ccccc1OCCNCC(O)COc1cccc2[nH]c3ccccc3c12 (stereo not given) [CARVEDILOL] | Compound NOT metabolized |

Assay: as §1, with “Z-030” for “Z-020”, “mouse” for “rabbit”, “ERS12561829” for “ERS12561819”
Details: 2 µM

| Compound | Bacterial Biotransformation |
| --- | --- |
| CC(NC(C)(C)C)C(=O)c1cccc(Cl)c1 (stereo not given) [BUPROPION] | Compound NOT metabolized |
| O=C1CC2(CCCC2)CC(=O)N1CCCCN1CCN(c2ncccn2)CC1 [BUSPIRONE] | Compound NOT metabolized |
| CCCC(C)(COC(N)=O)COC(=O)NC(C)C (stereo not given) [CARISOPRODOL] | Compound NOT metabolized |
| COc1ccccc1OCCNCC(O)COc1cccc2[nH]c3ccccc3c12 (stereo not given) [CARVEDILOL] | Compound NOT metabolized |

Details: human gut metagenome, 24 h, 2 µM
Remark: another data set of the same source

| Compound | Bacterial Biotransformation |
| --- | --- |
| CC(NC(C)(C)C)C(=O)c1cccc(Cl)c1 (stereo not given) [BUPROPION] | Compound NOT metabolized |
| O=C1CC2(CCCC2)CC(=O)N1CCCCN1CCN(c2ncccn2)CC1 [BUSPIRONE] | Compound NOT metabolized |
| CCCC(C)(COC(N)=O)COC(=O)NC(C)C (stereo not given) [CARISOPRODOL] | Compound metabolized |
| COc1ccccc1OCCNCC(O)COc1cccc2[nH]c3ccccc3c12 (stereo not given) [CARVEDILOL] | Compound NOT metabolized |

Details: human gut metagenome, 24 h, 2 µM
Remark: another data set of the same source

| Compound | Bacterial Biotransformation |
| --- | --- |
| CC(NC(C)(C)C)C(=O)c1cccc(Cl)c1 (stereo not given) [BUPROPION] | Compound metabolized |
| O=C1CC2(CCCC2)CC(=O)N1CCCCN1CCN(c2ncccn2)CC1 [BUSPIRONE] | Compound metabolized |
| CCCC(C)(COC(N)=O)COC(=O)NC(C)C (stereo not given) [CARISOPRODOL] | Compound metabolized |
| COc1ccccc1OCCNCC(O)COc1cccc2[nH]c3ccccc3c12 (stereo not given) [CARVEDILOL] | Compound metabolized |

Assay: as §1, with “WLS-310” for “Z-020”, “human” for “rabbit”, “ERS12561785” for “ERS12561819”
Details: 2 µM

| Compound | Bacterial Biotransformation |
| --- | --- |
| CC(NC(C)(C)C)C(=O)c1cccc(Cl)c1 (stereo not given) [BUPROPION] | Compound NOT metabolized |
| O=C1CC2(CCCC2)CC(=O)N1CCCCN1CCN(c2ncccn2)CC1 [BUSPIRONE] | Compound metabolized |
| CCCC(C)(COC(N)=O)COC(=O)NC(C)C (stereo not given) [CARISOPRODOL] | Compound NOT metabolized |
| COc1ccccc1OCCNCC(O)COc1cccc2[nH]c3ccccc3c12 (stereo not given) [CARVEDILOL] | Compound metabolized |

Assay: as §1, with “Z-008” for “Z-020”, “to” for “to rabbit gut”, “ERS12561808” for “ERS12561819”
Details: 2 µM

| Compound | Bacterial Biotransformation |
| --- | --- |
| CC(NC(C)(C)C)C(=O)c1cccc(Cl)c1 (stereo not given) [BUPROPION] | Compound NOT metabolized |
| O=C1CC2(CCCC2)CC(=O)N1CCCCN1CCN(c2ncccn2)CC1 [BUSPIRONE] | Compound NOT metabolized |
| CCCC(C)(COC(N)=O)COC(=O)NC(C)C (stereo not given) [CARISOPRODOL] | Compound metabolized |
| COc1ccccc1OCCNCC(O)COc1cccc2[nH]c3ccccc3c12 (stereo not given) [CARVEDILOL] | Compound NOT metabolized |

Assay: as §1, with “WLS-077” for “Z-020”, “human” for “rabbit”, “ERS12561750” for “ERS12561819”
Details: 2 µM

| Compound | Bacterial Biotransformation |
| --- | --- |
| CC(NC(C)(C)C)C(=O)c1cccc(Cl)c1 (stereo not given) [BUPROPION] | Compound NOT metabolized |
| O=C1CC2(CCCC2)CC(=O)N1CCCCN1CCN(c2ncccn2)CC1 [BUSPIRONE] | Compound NOT metabolized |
| CCCC(C)(COC(N)=O)COC(=O)NC(C)C (stereo not given) [CARISOPRODOL] | Compound metabolized |
| COc1ccccc1OCCNCC(O)COc1cccc2[nH]c3ccccc3c12 (stereo not given) [CARVEDILOL] | Compound metabolized |

Details: human gut metagenome, 24 h, 2 µM
Remark: another data set of the same source

| Compound | Bacterial Biotransformation |
| --- | --- |
| CC(NC(C)(C)C)C(=O)c1cccc(Cl)c1 (stereo not given) [BUPROPION] | Compound NOT metabolized |
| O=C1CC2(CCCC2)CC(=O)N1CCCCN1CCN(c2ncccn2)CC1 [BUSPIRONE] | Compound metabolized |
| CCCC(C)(COC(N)=O)COC(=O)NC(C)C (stereo not given) [CARISOPRODOL] | Compound metabolized |
| COc1ccccc1OCCNCC(O)COc1cccc2[nH]c3ccccc3c12 (stereo not given) [CARVEDILOL] | Compound metabolized |

Assay: as §1, with “Z-026” for “Z-020”, “to” for “to rabbit gut”, “ERS12561825” for “ERS12561819”
Details: 2 µM

| Compound | Bacterial Biotransformation |
| --- | --- |
| CC(NC(C)(C)C)C(=O)c1cccc(Cl)c1 (stereo not given) [BUPROPION] | Compound NOT metabolized |
| O=C1CC2(CCCC2)CC(=O)N1CCCCN1CCN(c2ncccn2)CC1 [BUSPIRONE] | Compound NOT metabolized |
| CCCC(C)(COC(N)=O)COC(=O)NC(C)C (stereo not given) [CARISOPRODOL] | Compound NOT metabolized |
| COc1ccccc1OCCNCC(O)COc1cccc2[nH]c3ccccc3c12 (stereo not given) [CARVEDILOL] | Compound NOT metabolized |

Assay: as §1, with “WLS-220” for “Z-020”, “human” for “rabbit”, “ERS12561769” for “ERS12561819”
Details: 2 µM

| Compound | Bacterial Biotransformation |
| --- | --- |
| CC(NC(C)(C)C)C(=O)c1cccc(Cl)c1 (stereo not given) [BUPROPION] | Compound NOT metabolized |
| O=C1CC2(CCCC2)CC(=O)N1CCCCN1CCN(c2ncccn2)CC1 [BUSPIRONE] | Compound NOT metabolized |
| CCCC(C)(COC(N)=O)COC(=O)NC(C)C (stereo not given) [CARISOPRODOL] | Compound metabolized |
| COc1ccccc1OCCNCC(O)COc1cccc2[nH]c3ccccc3c12 (stereo not given) [CARVEDILOL] | Compound metabolized |

Details: human gut metagenome, 24 h, 2 µM
Remark: another data set of the same source

| Compound | Bacterial Biotransformation |
| --- | --- |
| CC(NC(C)(C)C)C(=O)c1cccc(Cl)c1 (stereo not given) [BUPROPION] | Compound NOT metabolized |
| O=C1CC2(CCCC2)CC(=O)N1CCCCN1CCN(c2ncccn2)CC1 [BUSPIRONE] | Compound metabolized |
| CCCC(C)(COC(N)=O)COC(=O)NC(C)C (stereo not given) [CARISOPRODOL] | Compound NOT metabolized |
| COc1ccccc1OCCNCC(O)COc1cccc2[nH]c3ccccc3c12 (stereo not given) [CARVEDILOL] | Compound metabolized |
